This assay relates to human tonsil histocultures. The assay is classed as cell-based. Conditions: for donors whose tissue responded by producing antigen-specific antibodies: antigen added to medium for 2 days, responding donors out of donors tested; for dose dependence of specific IgG response: antigen in the range of 10-100 ng/ml; for induction of antibody against the other antigen and effect on total IgG production: challenge by either TT or DT.

As for diphtheria toxin [DT], the “donors whose tissue responded by producing antigen-specific antibodies” value was 17 of 24; the “dose dependence of specific IgG response” value is “dose-dependent”; the “induction of antibody against the other antigen and effect on total IgG production” value is reported as “did not induce the production of antibody against the other antigen nor did it increase total IgG production”.

Take tetanus toxoid: the “donors whose tissue responded by producing antigen-specific antibodies” value was 42 out of 55; the “dose dependence of specific IgG response” value is reported as “dose-dependent”; the “induction of antibody against the other antigen and effect on total IgG production” value is “did not induce the production of antibody against the other antigen nor did it increase total IgG production”. Besides, the “absolute amount of anti-TT IgG in medium” value (varied from tissue to tissue) is listed as “hundreds to several thousands”.

For the origin of these results see patent US6551772B1, “Model for viral infection and immune response” (AntiCancer, Inc., priority 1996, dated 2003).
